Measurements taken from article PMC8371461 (Frontiers in Pharmacology, 2021).
Read-outs that look alike come from different tables or passages of the source.

Experiments:
Assay in all cases: Kd select analysis (DiscoverX)
Type in all cases: binding
ANKK1 = biological target: T1, ANKK1 (Homo sapiens, UniProt Q8NFD2)
T1 construct: purchased DiscoverX (KINOMEscan)
T1 sequence (Q8NFD2 1-765): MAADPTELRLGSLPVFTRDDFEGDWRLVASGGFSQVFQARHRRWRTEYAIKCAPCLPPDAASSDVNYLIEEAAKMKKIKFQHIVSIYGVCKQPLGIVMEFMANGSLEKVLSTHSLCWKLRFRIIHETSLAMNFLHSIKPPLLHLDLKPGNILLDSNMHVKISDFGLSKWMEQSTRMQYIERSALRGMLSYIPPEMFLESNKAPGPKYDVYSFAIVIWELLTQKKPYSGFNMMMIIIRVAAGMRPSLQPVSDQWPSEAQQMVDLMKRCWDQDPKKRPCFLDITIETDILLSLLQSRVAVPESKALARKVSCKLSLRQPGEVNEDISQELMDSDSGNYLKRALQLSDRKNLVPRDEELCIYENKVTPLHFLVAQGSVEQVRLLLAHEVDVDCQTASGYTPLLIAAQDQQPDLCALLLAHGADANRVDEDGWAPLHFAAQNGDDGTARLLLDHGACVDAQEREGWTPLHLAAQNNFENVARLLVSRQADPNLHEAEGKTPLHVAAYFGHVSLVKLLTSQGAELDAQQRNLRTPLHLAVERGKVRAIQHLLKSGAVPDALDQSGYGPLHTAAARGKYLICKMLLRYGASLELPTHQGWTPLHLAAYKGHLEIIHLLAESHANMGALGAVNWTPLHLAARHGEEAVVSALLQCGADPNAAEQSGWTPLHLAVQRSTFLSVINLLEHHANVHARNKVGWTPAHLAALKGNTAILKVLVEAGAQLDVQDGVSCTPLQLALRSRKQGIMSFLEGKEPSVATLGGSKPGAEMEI
Experimental: (§1) Hits are identified by an ultra-sensitive quantitative PCR detecting the specific DNA tag linked to each kinase (Supplementary Figure S2). The drug is used at a concentration of 10 µM and results are expressed as the percentage of signal (kinase PCR detection) with respect to DMSO control conditions. Thirteen hits were identified, with a signal reduction ranging from 0 to 27% (Table 3). Full raw data are presented in Supplementary Table S4. Interactions between 0 and 20% of reduction were considered to be the most significant ones. […] A sub-micromolar affinity (Kd<1 µM) was only seen with two PIKs (PIP4K2C, PI4KB) and GAK (Table 4). Inhibitions curves from these compounds are shown in Supplementary Figure S3.

GAK = biological target: T2, GAK (Homo sapiens, UniProt O14976)
T2 construct: T7 phage fusion (kinase-tagged phage); purchased DiscoverX; host or cells: BL21-derived E. coli (T7 phage)
T2 sequence (O14976 1-1311): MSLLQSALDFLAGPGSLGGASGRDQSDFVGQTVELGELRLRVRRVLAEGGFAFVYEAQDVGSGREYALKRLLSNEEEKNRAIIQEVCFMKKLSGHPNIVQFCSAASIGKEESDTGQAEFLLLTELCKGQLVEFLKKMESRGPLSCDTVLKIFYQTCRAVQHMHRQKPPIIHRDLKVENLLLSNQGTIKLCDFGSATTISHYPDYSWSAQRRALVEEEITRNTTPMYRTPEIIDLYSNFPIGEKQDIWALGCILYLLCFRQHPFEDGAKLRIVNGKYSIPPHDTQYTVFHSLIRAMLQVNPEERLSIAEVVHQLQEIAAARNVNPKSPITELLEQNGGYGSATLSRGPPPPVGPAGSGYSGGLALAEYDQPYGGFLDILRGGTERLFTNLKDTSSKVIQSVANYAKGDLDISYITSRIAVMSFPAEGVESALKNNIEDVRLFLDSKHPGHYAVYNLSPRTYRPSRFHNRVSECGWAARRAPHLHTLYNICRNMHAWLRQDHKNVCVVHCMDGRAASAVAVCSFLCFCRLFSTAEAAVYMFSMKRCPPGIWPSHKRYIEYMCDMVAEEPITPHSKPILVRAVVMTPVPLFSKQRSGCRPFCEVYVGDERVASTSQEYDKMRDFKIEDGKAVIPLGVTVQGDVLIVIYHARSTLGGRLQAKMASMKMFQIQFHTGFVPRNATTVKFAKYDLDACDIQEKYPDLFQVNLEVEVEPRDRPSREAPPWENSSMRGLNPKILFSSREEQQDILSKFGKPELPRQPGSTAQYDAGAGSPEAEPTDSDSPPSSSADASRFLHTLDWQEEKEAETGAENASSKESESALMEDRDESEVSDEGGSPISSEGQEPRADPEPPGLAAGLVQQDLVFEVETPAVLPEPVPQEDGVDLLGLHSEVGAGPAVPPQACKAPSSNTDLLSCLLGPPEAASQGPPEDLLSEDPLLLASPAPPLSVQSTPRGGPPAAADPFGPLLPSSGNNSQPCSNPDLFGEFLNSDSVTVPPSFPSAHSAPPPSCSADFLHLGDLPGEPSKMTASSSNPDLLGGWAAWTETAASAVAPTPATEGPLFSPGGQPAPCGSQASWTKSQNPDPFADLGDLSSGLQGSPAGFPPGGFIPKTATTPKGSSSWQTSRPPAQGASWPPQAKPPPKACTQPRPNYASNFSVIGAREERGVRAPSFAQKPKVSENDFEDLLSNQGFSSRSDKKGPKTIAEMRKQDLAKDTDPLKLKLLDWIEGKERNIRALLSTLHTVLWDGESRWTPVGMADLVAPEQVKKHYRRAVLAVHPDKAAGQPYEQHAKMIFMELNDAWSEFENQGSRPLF
Experimental: as §1

PI4KB = biological target: T3, PI4KB (Homo sapiens, UniProt Q9UBF8)
T3 construct: T7 phage fusion (kinase-tagged phage); purchased DiscoverX; host or cells: BL21-derived E. coli (T7 phage)
T3 sequence (Q9UBF8 whole entry, the tested form may be a part): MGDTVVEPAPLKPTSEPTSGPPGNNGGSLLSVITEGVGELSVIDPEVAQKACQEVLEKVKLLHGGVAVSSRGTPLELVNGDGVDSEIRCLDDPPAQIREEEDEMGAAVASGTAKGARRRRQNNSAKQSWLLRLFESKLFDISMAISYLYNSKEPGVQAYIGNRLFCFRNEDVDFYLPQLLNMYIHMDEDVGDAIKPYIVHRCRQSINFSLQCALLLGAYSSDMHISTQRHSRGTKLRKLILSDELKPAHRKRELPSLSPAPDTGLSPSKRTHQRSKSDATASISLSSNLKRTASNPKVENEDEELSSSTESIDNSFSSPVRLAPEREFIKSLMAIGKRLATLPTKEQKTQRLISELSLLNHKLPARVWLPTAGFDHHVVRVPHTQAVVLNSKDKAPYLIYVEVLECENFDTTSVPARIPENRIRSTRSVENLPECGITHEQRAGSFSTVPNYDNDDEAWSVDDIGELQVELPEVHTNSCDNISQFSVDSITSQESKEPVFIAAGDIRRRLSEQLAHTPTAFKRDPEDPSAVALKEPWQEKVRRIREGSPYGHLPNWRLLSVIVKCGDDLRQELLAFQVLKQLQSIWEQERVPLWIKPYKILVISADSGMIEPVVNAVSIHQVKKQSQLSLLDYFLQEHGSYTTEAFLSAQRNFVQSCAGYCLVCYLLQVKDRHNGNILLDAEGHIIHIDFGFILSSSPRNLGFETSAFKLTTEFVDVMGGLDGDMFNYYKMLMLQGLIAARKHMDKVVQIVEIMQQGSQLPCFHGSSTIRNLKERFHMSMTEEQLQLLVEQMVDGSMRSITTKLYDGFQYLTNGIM
Experimental: as §1

PIP4K2C = biological target: T4, PIP4K2C (Homo sapiens, UniProt Q8TBX8)
T4 construct: T7 phage fusion (kinase-tagged phage); purchased DiscoverX; host or cells: BL21-derived E. coli (T7 phage)
T4 sequence (Q8TBX8 whole entry, the tested form may be a part): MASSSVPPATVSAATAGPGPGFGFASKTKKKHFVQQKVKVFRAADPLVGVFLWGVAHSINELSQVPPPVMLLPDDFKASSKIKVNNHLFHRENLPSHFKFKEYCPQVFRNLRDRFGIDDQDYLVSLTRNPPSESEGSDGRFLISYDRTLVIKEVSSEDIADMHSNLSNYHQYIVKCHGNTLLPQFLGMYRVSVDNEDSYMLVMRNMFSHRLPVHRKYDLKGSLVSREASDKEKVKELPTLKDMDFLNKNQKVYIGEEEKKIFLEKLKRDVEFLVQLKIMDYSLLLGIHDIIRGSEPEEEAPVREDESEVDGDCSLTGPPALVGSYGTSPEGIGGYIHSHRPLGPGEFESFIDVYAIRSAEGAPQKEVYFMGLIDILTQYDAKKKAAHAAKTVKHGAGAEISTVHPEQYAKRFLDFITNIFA
Experimental: as §1

[1] = sub-micromolar affinity, read-out: Kd

SMILES: Nc1ccc(N=Nc2ccccc2)c(N)n1 [phenazopyridine, 2,6-diamino-3-(phenylazo)pyridine]
- Kd (ANKK1): 21000 nM
- Kd (GAK; Phenazopyridine Kd (nM)): 760 nM
- Kd (GAK; [1]): < 1000 nM
- Kd (PI4KB; Phenazopyridine Kd (nM)): 730 nM
- Kd (PI4KB; [1]): < 1000 nM
- Kd (PIP4K2C; Phenazopyridine Kd (nM)): 540 nM
- Kd (PIP4K2C; [1]): < 1000 nM
